Assay results from PubChem BioAssay (NCI).
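48-hour exposure; five concentrations; linearly interpolated endpoints. TGI denotes the concentration required for complete inhibition of growth.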

Tests used:
Assay in all cases: inhibition of tumour cell growth, NCI panel, 48 h
MDA-MB-435 = test system: MDA-MB-435
MDA-MB-231 breast = test system: MDA-MB-231 breast
UACC-62 melanoma = test system: UACC-62 melanoma
LOX IMVI melanoma = test system: LOX IMVI melanoma
A549 NSCLC = test system: A549 NSCLC
COLO 205 colon = test system: COLO 205 colon
OVCAR-5 ovarian = test system: OVCAR-5 ovarian
RXF 393 renal = test system: RXF 393 renal
CAKI-1 renal = test system: CAKI-1 renal
DU-145 prostate = test system: DU-145 prostate
SNB-75 CNS = test system: SNB-75 CNS
NCI-H226 lung = test system: NCI-H226 lung
SK-OV-3 ovarian = test system: SK-OV-3 ovarian
KM12 colon = test system: KM12 colon
EKVX NSCLC = test system: EKVX NSCLC
U251 CNS = test system: U251 CNS
SR leukemia = test system: SR leukemia
SF-539 CNS = test system: SF-539 CNS
RPMI-8226 leukemia = test system: RPMI-8226 leukemia
SK-MEL-5 melanoma = test system: SK-MEL-5 melanoma
SW-620 colon = test system: SW-620 colon
IGROV1 ovarian = test system: IGROV1 ovarian
HOP-92 NSCLC = test system: HOP-92 NSCLC
CCRF-CEM leukemia = test system: CCRF-CEM leukemia
MALME-3M melanoma = test system: MALME-3M melanoma
NCI-H522 lung = test system: NCI-H522 lung
NCI/ADR-RES ovarian = test system: NCI/ADR-RES ovarian
ACHN renal = test system: ACHN renal
NCI-H23 lung = test system: NCI-H23 lung
SNB-19 CNS = test system: SNB-19 CNS
SK-MEL-28 melanoma = test system: SK-MEL-28 melanoma
HS 578T breast = test system: HS 578T breast
SF-295 CNS = test system: SF-295 CNS
PC-3 prostate = test system: PC-3 prostate
A498 renal = test system: A498 renal
786-0 renal = test system: 786-0 renal
UO-31 renal = test system: UO-31 renal
OVCAR-8 ovarian = test system: OVCAR-8 ovarian
HCC-2998 colon = test system: HCC-2998 colon
K-562 leukemia = test system: K-562 leukemia
SK-MEL-2 melanoma = test system: SK-MEL-2 melanoma
HOP-62 NSCLC = test system: HOP-62 NSCLC
HCT-116 colon = test system: HCT-116 colon
HL-60(TB) leukemia = test system: HL-60(TB) leukemia
HT29 colon = test system: HT29 colon
MDA-N = test system: MDA-N
HCT-15 colon = test system: HCT-15 colon
TK-10 renal = test system: TK-10 renal
NCI-H460 lung = test system: NCI-H460 lung
UACC-257 melanoma = test system: UACC-257 melanoma
SF-268 CNS = test system: SF-268 CNS
MOLT-4 leukemia = test system: MOLT-4 leukemia
OVCAR-4 ovarian = test system: OVCAR-4 ovarian
T-47D breast = test system: T-47D breast
SN12C renal = test system: SN12C renal
MCF7 breast = test system: MCF7 breast
OVCAR-3 ovarian = test system: OVCAR-3 ovarian
M14 melanoma = test system: M14 melanoma
BT-549 breast = test system: BT-549 breast

## Cn1cc(S(=O)(=O)NC(=O)Nc2ccc(Cl)cc2)c(=O)c2ccc(F)cc21
MDA-MB-435
  TGI: > 100 µM
MDA-MB-231 breast
  TGI: > 100 µM
UACC-62 melanoma
  TGI: 63.4 µM
LOX IMVI melanoma
  TGI: > 100 µM
A549 NSCLC
  TGI: > 100 µM
COLO 205 colon
  TGI: > 100 µM
OVCAR-5 ovarian
  TGI: > 100 µM
RXF 393 renal
  TGI: > 100 µM
CAKI-1 renal
  TGI: > 100 µM
DU-145 prostate
  TGI: > 100 µM
SNB-75 CNS
  TGI: > 100 µM
NCI-H226 lung
  TGI: > 100 µM
SK-OV-3 ovarian
  TGI: > 100 µM
KM12 colon
  TGI: > 100 µM
EKVX NSCLC
  TGI: > 100 µM
U251 CNS
  TGI: > 100 µM
SR leukemia
  TGI: > 100 µM
SF-539 CNS
  TGI: > 100 µM
RPMI-8226 leukemia
  TGI: > 100 µM
SK-MEL-5 melanoma
  TGI: > 100 µM
SW-620 colon
  TGI: > 100 µM
IGROV1 ovarian
  TGI: > 100 µM
HOP-92 NSCLC
  TGI: > 100 µM
CCRF-CEM leukemia
  TGI: > 100 µM
MALME-3M melanoma
  TGI: > 100 µM
NCI-H522 lung
  TGI: > 100 µM
NCI/ADR-RES ovarian
  TGI: > 100 µM
ACHN renal
  TGI: > 100 µM
NCI-H23 lung
  TGI: > 100 µM
SNB-19 CNS
  TGI: > 100 µM
SK-MEL-28 melanoma
  TGI: > 100 µM
HS 578T breast
  TGI: > 100 µM
SF-295 CNS
  TGI: > 100 µM
PC-3 prostate
  TGI: > 100 µM
A498 renal
  TGI: > 100 µM
786-0 renal
  TGI: > 100 µM
UO-31 renal
  TGI: > 100 µM
OVCAR-8 ovarian
  TGI: > 100 µM
HCC-2998 colon
  TGI: > 100 µM
K-562 leukemia
  TGI: > 100 µM
SK-MEL-2 melanoma
  TGI: > 100 µM
HOP-62 NSCLC
  TGI: > 100 µM
HCT-116 colon
  TGI: > 100 µM
HL-60(TB) leukemia
  TGI: > 100 µM
HT29 colon
  TGI: > 100 µM
MDA-N
  TGI: > 100 µM
HCT-15 colon
  TGI: > 100 µM
TK-10 renal
  TGI: > 100 µM
NCI-H460 lung
  TGI: > 100 µM
UACC-257 melanoma
  TGI: > 100 µM
SF-268 CNS
  TGI: > 100 µM
MOLT-4 leukemia
  TGI: > 100 µM
OVCAR-4 ovarian
  TGI: > 100 µM
T-47D breast
  TGI: > 100 µM
SN12C renal
  TGI: > 100 µM

## Cn1c(=O)c2c(nc3sc4ccccc4c(=O)n32)n(C)c1=O
MDA-MB-435
  TGI: > 100 µM
MDA-MB-231 breast
  TGI: > 100 µM
UACC-62 melanoma
  TGI: > 100 µM
LOX IMVI melanoma
  TGI: > 100 µM
COLO 205 colon
  TGI: > 100 µM
OVCAR-5 ovarian
  TGI: > 100 µM
RXF 393 renal
  TGI: > 100 µM
CAKI-1 renal
  TGI: > 100 µM
DU-145 prostate
  TGI: > 100 µM
SNB-75 CNS
  TGI: > 100 µM
NCI-H226 lung
  TGI: > 100 µM
SK-OV-3 ovarian
  TGI: > 100 µM
KM12 colon
  TGI: > 100 µM
EKVX NSCLC
  TGI: > 100 µM
U251 CNS
  TGI: > 100 µM
SF-539 CNS
  TGI: > 100 µM
RPMI-8226 leukemia
  TGI: > 100 µM
SK-MEL-5 melanoma
  TGI: > 100 µM
SW-620 colon
  TGI: > 100 µM
IGROV1 ovarian
  TGI: > 100 µM
HOP-92 NSCLC
  TGI: > 100 µM
NCI/ADR-RES ovarian
  TGI: > 100 µM
ACHN renal
  TGI: > 100 µM
NCI-H23 lung
  TGI: > 100 µM
SNB-19 CNS
  TGI: > 100 µM
SK-MEL-28 melanoma
  TGI: > 100 µM
HS 578T breast
  TGI: > 100 µM
SF-295 CNS
  TGI: > 100 µM
MCF7 breast
  TGI: > 100 µM
PC-3 prostate
  TGI: > 100 µM
A498 renal
  TGI: > 100 µM
786-0 renal
  TGI: > 100 µM
UO-31 renal
  TGI: > 100 µM
OVCAR-8 ovarian
  TGI: > 100 µM
HCC-2998 colon
  TGI: > 100 µM
K-562 leukemia
  TGI: > 100 µM
SK-MEL-2 melanoma
  TGI: > 100 µM
HOP-62 NSCLC
  TGI: > 100 µM
HCT-116 colon
  TGI: > 100 µM
HL-60(TB) leukemia
  TGI: > 100 µM
HT29 colon
  TGI: > 100 µM
MDA-N
  TGI: > 100 µM
HCT-15 colon
  TGI: > 100 µM
TK-10 renal
  TGI: > 100 µM
NCI-H460 lung
  TGI: > 100 µM
UACC-257 melanoma
  TGI: > 100 µM
OVCAR-3 ovarian
  TGI: > 100 µM
SF-268 CNS
  TGI: > 100 µM
MOLT-4 leukemia
  TGI: > 100 µM
OVCAR-4 ovarian
  TGI: > 100 µM
M14 melanoma
  TGI: > 100 µM
T-47D breast
  TGI: > 100 µM
SN12C renal
  TGI: > 100 µM
BT-549 breast
  TGI: > 100 µM

## Cc1cc(Cl)ccc1C(=O)c1ccc2ccccc2c1C(=O)O
MDA-MB-435
  TGI: > 100 µM
MDA-MB-231 breast
  TGI: > 100 µM
UACC-62 melanoma
  TGI: > 100 µM
A549 NSCLC
  TGI: > 100 µM
COLO 205 colon
  TGI: > 100 µM
OVCAR-5 ovarian
  TGI: > 100 µM
RXF 393 renal
  TGI: > 100 µM
CAKI-1 renal
  TGI: > 100 µM
DU-145 prostate
  TGI: > 100 µM
SNB-75 CNS
  TGI: > 100 µM
NCI-H226 lung
  TGI: > 100 µM
KM12 colon
  TGI: > 100 µM
U251 CNS
  TGI: > 100 µM
SR leukemia
  TGI: > 100 µM
SF-539 CNS
  TGI: > 100 µM
RPMI-8226 leukemia
  TGI: > 100 µM
SK-MEL-5 melanoma
  TGI: > 100 µM
SW-620 colon
  TGI: > 100 µM
IGROV1 ovarian
  TGI: > 100 µM
HOP-92 NSCLC
  TGI: > 100 µM
CCRF-CEM leukemia
  TGI: > 100 µM
MALME-3M melanoma
  TGI: > 100 µM
NCI-H522 lung
  TGI: > 100 µM
NCI/ADR-RES ovarian
  TGI: > 100 µM
ACHN renal
  TGI: > 100 µM
NCI-H23 lung
  TGI: > 100 µM
SNB-19 CNS
  TGI: > 100 µM
SK-MEL-28 melanoma
  TGI: > 100 µM
SF-295 CNS
  TGI: > 100 µM
MCF7 breast
  TGI: > 100 µM
PC-3 prostate
  TGI: > 100 µM
A498 renal
  TGI: > 100 µM
786-0 renal
  TGI: > 100 µM
UO-31 renal
  TGI: > 100 µM
OVCAR-8 ovarian
  TGI: > 100 µM
HCC-2998 colon
  TGI: > 100 µM
K-562 leukemia
  TGI: > 100 µM
SK-MEL-2 melanoma
  TGI: > 100 µM
HCT-116 colon
  TGI: > 100 µM
HL-60(TB) leukemia
  TGI: > 100 µM
HT29 colon
  TGI: > 100 µM
MDA-N
  TGI: > 100 µM
HCT-15 colon
  TGI: > 100 µM
TK-10 renal
  TGI: > 100 µM
NCI-H460 lung
  TGI: > 100 µM
UACC-257 melanoma
  TGI: > 100 µM
OVCAR-3 ovarian
  TGI: > 100 µM
SF-268 CNS
  TGI: > 100 µM
MOLT-4 leukemia
  TGI: > 100 µM
OVCAR-4 ovarian
  TGI: > 100 µM
M14 melanoma
  TGI: > 100 µM
T-47D breast
  TGI: > 100 µM
BT-549 breast
  TGI: > 100 µM
